Data set [1] has as its system plasma. Kind of data set: anticoagulant action determined as APTT. Type of data set: biochemical. The protocol: The compounds were dissolved in PBS of pH 7.2 and 30 μl were added to 270 μl of plasma.
APTT=activated partial thromboplastin time (seconds) APTT was determined electromechanically using standard methods.

The test system of data set [2] is OKT4A epitope of the CD4 receptor. As to the kind of experiment: CD4 immunofluorescence assay, OKT4A mAb-CD4 interaction on MT-4 cells. The note with it: at 25 μg/ml.

For the compound Heparin, the “Anticoagulant action, APTT” value came out at 38.4 s in data set [1] (0.01 μg/ml); 40.3 s in data set [1] (0.1 μg/ml); 40.5 s in data set [1] (1 μg/ml); 65 s in data set [1] (3 μg/ml); 140 s in data set [1] (5 μg/ml); 220 s in data set [1] (10 μg/ml). Besides, in data set [1] (100 μg/ml), the “Anticoagulant action, APTT” value is greater than 400 s. In data set [1] (in words), the “anticoagulant activity as side effect” value is reported as “serious anticoagulant activity”.
For the compound `O=C(O)C1=CC(=C(c2ccc(O)c(C(=O)O)c2)c2ccc(O)c(C(=O)O)c2)C=CC1=O` [Aurintricarboxylic acid (ATA), Aurintricarboxylic acid], in data set [2], the “inhibition of OKT4A mAb-CD4 interaction” value is recorded as “completely inhibited”.
